This passage reports Kd results from article PMC11767950, “Human Serum Albumin and Human Serum Albumin Nanoparticles as Carriers of 10-(2′-Pyrimidyl)-3,6-diazaphenothiazine: In Vitro Spectroscopic Studies” (Molecules, 2025).

The test deals with T1, Human serum albumin (HSA) (Homo sapiens, UniProt P02768).
T1 construct: gene ALB
The experiment in a line: intrinsic fluorescence quenching (Stern-Volmer, Klotz Ka), dansyl amino acid marker displacement, far UV-CD. It counts as binding. As to conditions: read-out: λex 275 nm / Ka [mol^-1.L] ± SD ^1.

T1 sequence (P02768 25-609): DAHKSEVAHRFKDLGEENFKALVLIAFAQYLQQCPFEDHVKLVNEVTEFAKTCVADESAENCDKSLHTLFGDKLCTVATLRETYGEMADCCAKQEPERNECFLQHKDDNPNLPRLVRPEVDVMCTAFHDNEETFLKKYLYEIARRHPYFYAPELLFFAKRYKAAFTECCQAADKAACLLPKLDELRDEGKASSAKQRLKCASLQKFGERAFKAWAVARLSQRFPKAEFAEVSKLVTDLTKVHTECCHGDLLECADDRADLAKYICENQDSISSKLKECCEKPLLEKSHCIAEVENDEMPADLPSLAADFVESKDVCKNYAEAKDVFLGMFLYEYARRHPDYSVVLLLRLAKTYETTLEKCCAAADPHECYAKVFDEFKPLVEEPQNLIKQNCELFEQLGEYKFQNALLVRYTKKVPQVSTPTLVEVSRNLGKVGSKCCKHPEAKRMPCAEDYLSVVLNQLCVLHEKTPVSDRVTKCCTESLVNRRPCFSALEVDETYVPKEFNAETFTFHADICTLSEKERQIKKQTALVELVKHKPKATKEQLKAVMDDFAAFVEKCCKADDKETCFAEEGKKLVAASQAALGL

On to `c1cnc(N2c3ccncc3Sc3ncccc32)nc1` [10-Pyr-3,6-DAPT, 10-(2′-pyrimidyl)-3,6-diazaphenothiazine], for which the Kd was 19.1 µM.
